# Results reported in US20030220524A1, “Sulfur containing compounds” (priority 2000, published 2003).
# How the values were obtained:
# [1] = tested on: KK leukemic cell line; assay: TUNEL, flow cytometry; assay type: cell-based, human; conditions: 48 h
# Experimental: (§1) Adherent cell lines were plated at 35×10^4 cells/60 cm^2 dish the day before exposure to compound. Suspension cells were seeded at 25×10^4 cells/mL in a 6 well dish (Falcon) the day of exposure to compound. Mononucleated, T-cell depleted normal bone marrow cells were seeded at 50×10^4 cells/mL in a 6 well dish the day of exposure to compound. Cells were exposed to solvent control or approximate MTT50 and MTT30 concentrations of the compound. After 48 h of exposure to the compound, cells were harvested and fixed with a final concentration of 4% formaldehyde. Fixed cells were stored at −20° C. in 70% ethanol for no more than 5 days. Approximately 10^5 cells were pelleted and labeled with 0.02 mM Biotin-dUTP and 12.5 U TdT enzyme in a 1× reaction buffer (200 mM potassium cacodylate, 25 mM Tris-HCl, 25 μg/mL bovine serum albumin, pH 6.6), 2.5 mM CoCl2 and 0.01 mM dTTP (Roche Molecular Biochemicals, Laval, QC, Canada) for 45 min at 37° C. Samples were washed and incubated in 200 μL of 1:1000 fluorescein isothiocyanate (FITC)-conjugated avidin (Sigma) in 4×SSC, 5% skim milk powder and 0.05% Tween-20 (Sigma). Following 1 h of mixing at room temperature, the samples were washed and resuspended in 500 μL of D-PBS containing 2.5 μg/mL DNase-free RNase (Boehringer Mannheim) and 10 μg/mL PI. Following a 30 min incubation at room temperature, cells were analyzed using a XL-MCL flow cytometer (Coulter Corporation, Miami, Fla.) and a FACScalibar cytometer (Becton Dickinson, San Jose, Calif.). Profiles shown are representative of one experiment.
# as §1, with “? s” for “Cells”, “appr ? nate” for “approximate”, “of” for “of the”, “Pl.” for “PI.”
# [2] = tested on: mammalian cells; assay: Antiproliferative activity, summary grouping on the basis of MTT assays; assay type: cell-based; conditions: in words
# Experimental: Adherent cells were seeded at 67×10^3 cells/mL in a 96 well plate (Falcon, Mississauga, Ontario) the day prior to exposure to compound. Suspension cells were seeded at 27×10^4 cells/mL in a 96 well plate the day of exposure to compound. Mononucleated, T-cell depleted normal bone marrow cells were seeded at 67×10^4 cells/mL in a 96 well plate the day of exposure to compound. Compounds and solvent control were added to cells and assayed in triplicate or sextuplet. Following 48 h of incubation at 37° C. with 5% CO2, 40 μL of a 5 mg/mL solution of 3-[4,5-dimethylthiazol-2-yl]-2,5-diphenyltetrazolium bromide (MTT) substrate (Sigma) in Dulbecco's phosphate-buffered saline (D-PBS) was added. After 4 h of incubation at 37° C. with 5% CO2, the resulting violet formazan precipitate was solubilized by the addition of 80 μL of a 0.01 M HCI, 10% sodium dodecyl sulfate (SDS; Sigma) solution overnight at 37° C. with 5% CO2. The plates were then analyzed using the BioRad Benchmark Microplate Reader (BioRad Laboratories, Hercules, Calif.) at 570 nm to determine the optical density of the samples. MTT data was analyzed using Prism 3.0 (GraphPad Software, Inc., San Diego, Calif.) by the Chou-Talalay method. MTT graphs shown are a representative experiment.
# Initially, the efficacy of ten synthetic OSCs was explored for their antiproliferative activity against mammalian cells. […]
smiles,measurement,setting,value
"CCC(=O)OCSSc1ccccc1 [Compound Q, 1-phenyl-1,2-dithiapropyl propionate]",% TUNEL +ve,[1]; dose 25 uM,43%
same,% TUNEL +ve,[1]; dose 50 uM,61%
"CSSCC(=O)c1ccccc1 [Compound P, phenacyl methyl disulphide]",% TUNEL +ve,[1]; dose 50 uM,47%
same,% TUNEL +ve,[1]; dose 100 uM,78%
"CS(C)(=O)=O [Compound A, dimethyl sulfone]",Antiproliferative activity (grouping in Summary of Results and Notes to the data sets),[2],No anti-proliferative properties
"CSSCCS(C)(=O)=O [F, 2,3,6-trithiaheptane 6,6,-dioxide]",Antiproliferative activity (grouping in Summary of Results and Notes to the data sets),[2],Anti-proliferative Activity
